Data set [1] deals with LC3B. Nature of the data set: LC3B immunostaining autophagy assay, average of four cell lines. The class given is cell-based. Particulars: for EC50: 16 h, read-out: Autophagy EC50.
Data set [2] concerns Vero-E6 cells. Kind of data set: Nuclei counts in autophagy assay in Vero-E6 cells. The class given is cell-based. The conditions noted are these: for cytotoxicity based on nuclei counts: highest concentrations (50 μM for all except for ROC-325 at 25 μM).
In another data set the test system is Vero E6 cells. The conditions noted are these: for cell toxicity: Vero E6, up to 30 μM; for cytotoxic: at all concentrations.
Data set [3] has as its system SARS-CoV-2. Particulars: similar CPE assay with SARS-CoV-2 in Vero-E6 cells; ref [61]; cited from earlier work.
The conditions of data set [4]: cited from earlier work; for Cmax: human plasma, clinically efficacious doses.
A short description of a further data set: in vitro. The conditions noted are these: African green monkey, CPE CC50, uninfected Vero E6, 72 h, Cell Titer-Glo. A general note: Cellular ATP, detected with luciferase, serves as a proxy for viable cell number.
Data set [5] has as its system SARS-CoV-2. The class given is cell-based, SARS CoV-2 (USA_WA1/2020). Particulars: Vero-E6, up to 30 μM.
A short description of a further data set: Cell. Type of data set: cell-based.
The subject of data set [6] is LC3B. Kind of data set: LC3B immunostaining autophagy assay in Vero-E6 cells. The class given is cell-based. The conditions noted are these: ~16 h; for LC3B spot counts: Vero-E6, 50 μM – 0.02 μM.
Data set [7] relates to Vero-E6 cells. The conditions noted are these: drug-repurposing screen in Vero-E6 cells; ref [61]; cited from earlier work.
The conditions of data set [8]: in monkey; ref [77]; cited from earlier work.
In data set [9] the test system is LC3B. Kind of data set: LC3B immunostaining autophagy assay in Huh-7.5 cells. Type of data set: cell-based, human.
In a further data set the test system is acidic organelles. Nature of the data set: LysoTracker Deep Red staining assay in Vero-E6 cells. Type of data set: cell-based. Particulars: Vero-E6, cell counts, highest concentration.

Where two headings read alike, the source gives them in different places.

Usually EC50 stands for the concentration at which the effect is half-maximal. Usually IC50 stands for the concentration at which inhibition is half-maximal. For orientation: Vd means the apparent volume that relates the amount in the body to the concentration in plasma or blood. The CC50 is the concentration at which the toxic effect on the cells reaches its halfway point. As for `CCN(CC)CCCC(C)Nc1ccnc2cc(Cl)ccc12` (centres unmarked) [Chloroquine], the EC50 with LC3B [1] was found to be 3.29 ± 1.86 µM. Moreover, in the data set with Vero-E6 cells [2], the “cytotoxicity based on nuclei counts” value was “not cytotoxic”. In addition, in the data set on Vero E6 cells, the “cell toxicity” value is given as “no associated cell toxicity” and the cytotoxic result is on record as “less than 50%”. Further, the IC50 with SARS-CoV-2 [3] is 42 µM. In addition, in [4] (ref [78], [79]), the Vd is given as 100 L/kg and the bioavailable is recorded as 75%. The CC50 in the data set “in vitro” is > 30 µM.

The term Cmax denotes the maximum level reached in the sampled fluid or tissue. `CN(C)CCCN1c2ccccc2CCc2ccc(Cl)cc21` [Clomipramine]: in the data set with SARS-CoV-2 [5], the “activity against SARS-CoV-2 CPE” value is listed as “completely prevent SARS-CoV-2 CPE”. Moreover, in the data set with LC3B [1] (all cell lines except for Vero-E6), the “increasing LC3B” value is “effective”. Moreover, the CC50 at 16 h in the data set “Cell” was > 50 µM. In addition, the “submaximal increase of LC3B spot counts” value in the data set on LC3B [6] (Vero-E6, normalized to DMSO (0%) and CQ (100%)) is on record as 40%. The “cytotoxicity based on nuclei counts” value with Vero-E6 cells [2] is given as “not cytotoxic”. The cytotoxicity result with Vero E6 cells (at 30.0 μM) is on record as “less than 20%”. Further, the cytotoxic result in the data set with Vero E6 cells is recorded as “less than 50%”. In data set [4] (ref [76]), the Cmax is 290 nM and the “Vd” value is given as “high”. The CC50 in the data set “in vitro” is > 30 µM. In addition, in the data set on Vero-E6 cells [7], the CC50 is > 30 µM.

In the case of `CCN(CC)CCNc1ccc(CO)c2sc3ccccc3c(=O)c12` [Hycanthone], the “activity against SARS-CoV-2 CPE” value in the data set on SARS-CoV-2 [5] is “moderate levels of activity”. The EC50 in the data set with LC3B [1] is 7.35 ± 4.7 µM. The molecule further registered a CC50 at 16 h in “Cell” of 11.3 ± 2.73 µM. For the same molecule, the “LC3B spot counts” value with LC3B [6] is on record as “maximal spot counts”. The cells killed result in the data set with Vero-E6 cells [2] (at 50 μM) is listed as “approximately 60%”. The “cell toxicity” value in the data set on Vero E6 cells was “cytotoxic at the highest concentrations”. Further, the “reduction of cell viability” value with Vero E6 cells (at 30 μM) is recorded as ~100%. The “absorption” value in data set [8] is reported as “well-absorbed”.

With `CCN(CCO)CCCC(C)Nc1ccnc2cc(Cl)ccc12` (centres unmarked) [Hydroxychloroquine, hydroxychloroquine], in the data set on LC3B [1], the EC50 was 6.55 ± 6.67 µM. For the same molecule, the CC50 at 16 h in the data set “Cell” was > 50 µM. For the same molecule, in the data set with Vero-E6 cells [2], the “cytotoxicity based on nuclei counts” value was “not cytotoxic”. For the same molecule, in the data set on Vero E6 cells, the “cell toxicity” value is “no associated cell toxicity” and the cytotoxic entry is recorded as “less than 50%”. The IC50 with SARS-CoV-2 [3] is 9.21 µM. Besides, in data set [4] (ref [80]), the Cmax was 1500 nM; the T1/2 is ~40 days; the “absorption” value is “rapid and complete absorption”. For the same molecule, the CC50 in the data set “in vitro” is > 30 µM.

Consider `OC(c1cc(C(F)(F)F)nc2c(C(F)(F)F)cccc12)C1CCCCN1` (centres unmarked) [Mefloquine], for which the “activity against SARS-CoV-2 CPE” value in the data set with SARS-CoV-2 [5] was “moderate levels of activity”. Moreover, the CC50 at 16 h in “Cell” came to 18.4 ± 2.08 µM. Moreover, in the data set with LC3B [9] (Homo sapiens, Huh7.5, read-out: Autophagy EC50), the EC50 worked out at 7.3 µM. The “LC3B spot counts” value in the data set with LC3B [9] (Huh-7.5) was “increased LC3B spot counts even at low concentrations”; with LC3B [6], “ineffective”. Also, the “cytotoxicity based on nuclei counts” value with Vero-E6 cells [2] is “completely toxic”. For the same molecule, in the data set on acidic organelles, the “toxicity in LysoTracker assay” value was “toxic at the highest concentration”. Also, in the data set on Vero E6 cells, the “cell toxicity” value is “cytotoxic at the highest concentrations”. The cytotoxicity in the data set on Vero E6 cells (at 15.0 to 30.0 μM) was determined as 100%. In addition, the IC50 in the data set with SARS-CoV-2 [3] is 7.11 µM. Besides, the Cmax in data set [4] (ref [81]) is 4500 nM. In addition, the CC50 with Vero-E6 cells [7] is > 18.5 µM.

`CCC(CC)COC(=O)[C@H](C)N[P@](=O)(OC[C@H]1O[C@@](C#N)(c2ccc3c(N)ncnn23)[C@H](O)[C@@H]1O)Oc1ccccc1` [Remdesivir, remdesivir]: the “cell toxicity” value with Vero E6 cells is given as “no apparent cytotoxicity”.

Values taken from PMC7259466 (bioRxiv, 2020).
